From patent US11794009B2, “Devices, systems and methods for treating urological and gastrointestinal disorders by electrical stimulation of the foot” (priority 2014, dated 2023)

Assays:
[1] = system: bladder overactivity induced by 0.25% acetic acid (AA) irritation; conditions: 0.5168 mg/kg dose alone (references 20, 31, 36); cited from earlier work
[2] = system: bladder overactivity induced by 0.25% acetic acid (AA) irritation; experiment: Cystometrogram (CMG) bladder capacity during 0.25% acetic acid (AA) infusion in anesthetized cats, duloxetine / WAY100635 with and without foot stimulation; type: in vivo, cat
Protocol: Experiments were performed in a total of 8 adult anesthetized cats (5 female and 3 male cats between 3.1-4.4 kg). Each cat was anesthetized with isoflurane (2-3% in O2) during surgery and then changed to α-chloralose (65 mg/kg, supplemented as necessary) anesthesia during data collection. A pulse oximeter (9847V, Nonin Medical Inc., Plymouth, MN, USA) with the sensor attached to the tongue was used to monitor heart rate and blood oxygen saturation. Catheters were inserted in the right cephalic vein and right carotid artery for intravenous infusion of drugs and monitoring systemic blood pressure, respectively. Airway access was secured with a tracheostomy tube. Ureters were accessed through a midline abdominal incision and drained externally. The bladder was then cannulated with a double lumen catheter through a small cut at the proximal urethra to infuse saline or 0.25% AA and simultaneously measure bladder pressure. The proximal urethra was tied to prevent leakage. Fur was removed from the right hind foot and two self-adhesive pad electrodes (Grass FE10ND, Astro-Medical Inc., Mentor, OH, USA; diameter 1 cm) were attached to the skin at the bottom of the foot. One electrode was at the front of the foot and the other was at the heel (Chen G et al. Post-stimulation inhibitory effect on reflex bladder activity induced by activation of somatic afferent nerves in the foot. J Urol 187: 338-343, 2012; Tai C et al. Suppression of bladder overactivity by activation of somatic afferent nerves in the foot. BJU Int 107: 303-309, 2011).
Uniphasic rectangular pulses (5 Hz frequency, 0.2 ms pulsewidth) were delivered to the surface electrodes on the foot. Stimulation intensity threshold (T) was defined as the minimal intensity to induce a toe twitch. […] BJU Int 107: 303-309, 2011). Initially the bladder capacity was determined during cystometrograms (CMGs) by slowly infusing the bladder with saline. Multiple CMGs were performed to ensure reproducibility of the saline control capacity.
Bladder capacity was defined as the bladder volume threshold required to induce a micturition contraction of large amplitude (>30 cm H2O) and long duration (>20 seconds). Then, repeated CMGs were performed with infusion of 0.25% AA to irritate the bladder, activate nociceptive bladder afferent C-fibers, and induce bladder overactivity. When the bladder capacity stabilized, four CMGs were performed with AA infusion (Infusion rate=2 mL/min) prior to the administration of duloxetine: (1) control without stimulation, (2) during 2 T stimulation, (3) during 4 T stimulation, and (4) control without stimulation to determine any post-stimulation effect. The bladder was emptied at the end of each CMG and a 3-5 minute rest period was inserted between CMGs.
After the pre-drug CMGs were performed, increasing cumulative doses (0.003, 0.01, 0.03, 0.1, 0.3, 1, and 3 mg/kg, i.v.) of duloxetine (Selleck Chemicals, Houston, TX) were given to determine the drug effect on bladder capacity. Ten minutes after administering each dose of duloxetine, the four CMGs were again performed with AA infusion under different conditions (control, 2 T stimulation, 4 T stimulation, and post-stimulation control). The four repeated CMGs were completed within 40-60 minutes. In 4 cats 50-70 minutes after giving the maximal dose of duloxetine (3 mg/kg), WAY100635 (Sigma-Aldrich, St. Louis, MO), a 5HT1A antagonist, was administered (0.5 mg/kg, i.v.) to block 5HT1A inhibitory autoreceptors on serotonergic neurons in the raphe nucleus in an attempt to enhance the serotonergic inhibitory influence of duloxetine on bladder reflexes. Five minutes after administration of WAY100635, we performed control CMGs without stimulation to examine the combined effect of WAY100635 and duloxetine on bladder capacity.
For each CMG, bladder capacity was normalized to the initial saline control capacity in the same animal, which allowed for comparisons between animals.

[3] = system: bladder overactivity induced by 0.25% acetic acid (AA) irritation; experiment: Cystometrogram (CMG) bladder capacity during 0.25% acetic acid (AA) infusion in anesthetized cats, tolterodine with and without foot stimulation; type: in vivo, cat; conditions: for bladder capacity: AA infusion
Protocol: Experiments were conducted in a total of 6 adult cats (4 female and 2 male cats between 2.8-3.8 kg) under achloralose anesthesia (65 mg/kg, supplemented as necessary) after induction with isoflurane (2-3% in O2). Heart rate and blood oxygen level were monitored with a pulse oximeter (9847 V, Nonin Medical Inc., Plymouth, MN, USA) that was attached to the tongue. Systemic blood pressure was monitored via a catheter in the right carotid artery. These physiological parameters were monitored to ensure that the animal's vital functions remained relatively stable during the entire experiment. Drugs or fluids were administered through a catheter in the right cephalic vein and airway access was secured with a tracheostomy tube. Ureters were accessed through a midline abdominal incision and drained externally. The bladder was cannulated through the urethra with a double lumen catheter to infuse (1-2 ml/min) saline or 0.25% acetic acid (AA) via one lumen and measure bladder pressure via another lumen. A ligature was tied around the proximal urethra to prevent leakage. Fur was removed from the foot and two self-adhesive pad electrode (Grass FE10ND, Astro-Medical Inc., Mentor, OH, USA; diameter 1 cm) were attached to the skin at the bottom of the left hind foot. One electrode was at the front of the foot and the other was at the heel.
Uniphasic rectangular pulses (5 Hz frequency, 0.2 ms pulsewidth) were delivered to the skin electrodes on the foot. Threshold (T) stimulation intensity (3-16 V), which was defined as the minimal intensity to induce an observable toe twitch, was determined by slowly increasing the stimulation intensity at the beginning of the experiment. […] The initial bladder capacity was determined during a cystometrogram (CMG) by slowly infusing the bladder with saline. Bladder capacity was defined as the bladder volume threshold to induce a bladder reflex contraction of large amplitude (>30 cm H2O) and long duration (>20 seconds).
Multiple CMGs were performed to determine reproducibility of the saline control capacity. Then, repeated CMGs were performed with AA infusion to irritate the bladder, activate nociceptive bladder C-fiber afferents, and induce bladder overactivity. Once the irritated bladder capacity was stabilized, four CMGs were performed prior to drug administration: 1. control CMG without stimulation; 2. CMG during 2 T stimulation; 3. CMG during 4 T stimulation; and 4. control CMG without stimulation to determine any post-stimulation effect. Increasing cumulative doses of tolterodine (tolterodine L-tartrate, Tocris Bioscience, Bristol, UK) were then administered (0.003, 0.01, 0.03, 0.1, and 0.3 mg/kg, i.v.). Ten minutes after administering each dose of tolterodine, the CMGs were performed again under the four different conditions (control, 2 T stimulation, 4 T stimulation, and post-stimulation control) to determine the drug effect on bladder capacity. The bladder was emptied after each CMG followed by a 3-5 min rest period to allow the distended detrusor to recover.
For the repeated CMG recordings, bladder capacity was normalized to the initial saline control capacity in the same animal to allow comparisons between animals. Capacity measurements under the same conditions were averaged and reported as mean±standard error of the mean (SEM). The mean amplitude of the bladder reflex contraction was also measured during each CMG and normalized to the AA control CMG to determine the effect of tolterodine on detrusor contractility. Statistical significance (p<0.05) was detected by ANOVA followed by Dunnett or Bonferroni post-tests.

COc1ccccc1N1CCN(CCN(C(=O)C2CCCCC2)c2ccccn2)CC1 [WAY100635]
effect of WAY100635 alone on bladder capacity [1]: does not affect bladder capacity
bladder capacity ([2]; WAY100635 0.5168 mg/kg i.v. after final 3 mg/kg dose of duloxetine, no stimulation, N=4 cats, p=0.008): 162.2±22.5 % of saline control

Cc1ccc(O)c([C@H](CCN(C(C)C)C(C)C)c2ccccc2)c1 [tolterodine]
effect on control bladder capacity ([3]; 0.1 mg/kg i.v., absence of stimulation): not effective in significantly increasing control bladder capacity
amplitude of bladder reflex contractions ([3]; 0.003-0.3 mg/kg i.v., control, 2 T or 4 T foot stimulation CMGs): did not alter the amplitude of bladder reflex contractions
total inhibitory effect of tolterodine combined with foot stimulation ([3]; 2 T and 4 T foot stimulation, every dosage): additive
post-stimulation effect on bladder capacity ([3]; after 2 T and 4 T stimulation, every dose of tolterodine): no post-stimulation effect was observed
effect on bladder capacity during AA infusion CMGs ([3]; cumulative doses 0.003-0.3 mg/kg i.v., absence of foot stimulation): increased bladder capacity dose dependently
bladder capacity ([3]; tolterodine 0.1 mg/kg i.v., 4 T foot stimulation): 97.0±11.2 % of saline control
bladder capacity ([3]; tolterodine 0.3 mg/kg i.v. (cumulative), absence of foot stimulation, N=6 cats): 65.6±15.5 % of the saline control capacity
bladder capacity ([3]; tolterodine 0.3 mg/kg i.v., 2 T foot stimulation): 86.2±6.2 % of the saline control
bladder capacity ([3]; tolterodine 0.3 mg/kg i.v., 4 T foot stimulation): 107.9±10.6 % of the saline control
threshold pressure for inducing a micturition reflex ([3]; tolterodine 0.3 mg/kg i.v., 5.0±1.3 cm H2O before treatment): 8.1±1.4 cm H2O

CNCC[C@H](Oc1cccc2ccccc12)c1cccs1 [duloxetine]
effect on AA-induced overactivity ([2]; 3 mg/kg i.v., absence of stimulation): completely removed AA-induced overactivity
post-stimulation effect on bladder capacity ([2]; after 2 T and 4 T stimulation in duloxetine treated animals): absence of a post-stimulation effect
effect of foot stimulation on capacity when combined with duloxetine ([2]; after doses 0.003 mg/kg to 0.03 mg/kg i.v.): significantly (p<0.05) increased capacity
effect of foot stimulation on capacity when combined with duloxetine ([2]; after doses between 0.1 mg/kg and 3 mg/kg i.v.): did not significantly increase capacity
bladder capacity ([2]; after final 3 mg/kg dose of duloxetine, before WAY100635, no stimulation, N=4 cats): 117.3±17.6 % of saline control
effect on bladder capacity during AA infusion ([2]; doses 0.1-3 mg/kg i.v., absence of stimulation): dose-dependently and significantly (p<0.05) increased bladder capacity
bladder capacity ([2]; duloxetine 3 mg/kg i.v. (cumulative), AA infusion, absence of stimulation, N=8 cats): 109±15.5 % of saline control
bladder capacity ([2]; duloxetine 3 mg/kg i.v., AA infusion, during 2 T foot stimulation (5 Hz, 0.2 ms)): 129.3±23.2 % of saline control
bladder capacity ([2]; duloxetine 3 mg/kg i.v., AA infusion, during 4 T foot stimulation (5 Hz, 0.2 ms)): 129.2±25.8 % of saline control
